Measurements reported in patent US9186406B2, “Compositions containing nucleosides and manganese and their uses” (The Henry M. Jackson Foundation for Advancement of Military …, priority 2007, dated 2015).

Columns and labels:
restriction enzyme BamH1 = target: T1, restriction enzyme BamH1 (Bacillus amyloliquefaciens, UniProt P23940); assay type: biochemical; details: exposure to 17,500 Gy; 25 mM potassium phosphate buffer; 3 mM adenosine, 1 mM MnCl2
T1 sequence (P23940 1-213): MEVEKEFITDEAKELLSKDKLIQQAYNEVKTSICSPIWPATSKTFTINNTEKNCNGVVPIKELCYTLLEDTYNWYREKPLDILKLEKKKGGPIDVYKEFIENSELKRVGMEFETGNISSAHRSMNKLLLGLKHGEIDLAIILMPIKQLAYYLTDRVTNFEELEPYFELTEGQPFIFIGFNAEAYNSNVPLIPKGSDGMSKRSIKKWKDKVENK
Method: Post-irradiation functionality of restriction enzyme BamH1 after indicated treatment and incubation with 1-DNA.

hFOB cells = test: apoptosis assay (Annexin V / PI flow cytometry) of hFOB cells 6 days after IR; assay type: cell-based, Human; details: for radioprotection of a mammalian cell line: agent alone; for Annexin V + / Annexin-V + PI / Live Cells / PI: hFOB cells 6 days after IR, adenosine 10 mM, MnCl2 0.25 mM, added 3 h before IR
Method: Apoptosis of Human Fetal Osteoblastic 1.19 cell line from ATCC (hFOB) was determined by death and apoptotic markers (Annexin V and propidium iodide PI) using a flow cytometry assay. In brief, hFOB cells were cultured in DMEM-F12 with 10% fetal bovine serum, 2.5 mM L-glutamine and 1% antibiotic to full confluency followed by treatment for experimental groups with adenosine (10 mM) or MnCl2 (0.25 mM) or adenosine and MnCl2 for 6 days period starting 3 h before IR. Apoptotic cell death was measured by flow cytometry with Annexin V and PI staining 6 days after IR. hFOB cells also were plated (1×10^3/well, 6-well plate) for clonogenic survival assay after IR. Colonies were counted 10 days later.
For the assays, adenosine+/−0.25 mM Mn(II) was added 3 hours prior to irradiation. Cells were assayed 6 days after irradiation by flow cytometry. Annexin-V conjugates allow for the identification of cell surface changes that occur early during the apoptotic process using flow cytometry. Early in the apoptotic process, phosphatidylserine becomes exposed on the cell surface. Propidium Iodide (PI) in un-fixed cells discriminates between apoptosis and necrosis on the basis of dye exclusion. While necrotic cells lose membrane integrity early on in their death throws, apoptotic cells may have compromised membranes.

[1] = system: Purified E. coli proteins; test: protein carbonyl assay of purified E. coli proteins irradiated in vitro; assay type: biochemical; details: for prevention of ionizing radiation (IR)-induced protein oxidation (carbonylation) in vitro: purified E. coli proteins incubated with the agent during irradiation, Carbonyl Western blot
Method: Purified E. coli proteins were incubated in PP-, EC-, or DR-ultra-filtrated extract during irradiation, and subjected to a protein carbonyl assay.
Purified E. coli proteins were incubated with the indicated agents.

| SMILES | BamH1 functionality after irradiation (restriction enzyme BamH1) | radioprotection of a mammalian cell line (hFOB cells) | Annexin V + (hFOB cells; 0 Gy) [%] | Annexin-V + PI (hFOB cells; 0 Gy) [%] | Live Cells (hFOB cells; 0 Gy) [%] | PI (hFOB cells; 0 Gy) [%] | Annexin V + (hFOB cells; 8 Gy) [%] | Annexin-V + PI (hFOB cells; 8 Gy) [%] | Live Cells (hFOB cells; 8 Gy) [%] | PI (hFOB cells; 8 Gy) [%] | protection of proteins from oxidation during irradiation ([1]; potassium phosphate buffer (PPB/25 mM)+15 mM adenosine, compared to buffer alone) | prevention of ionizing radiation (IR)-induced protein oxidation (carbonylation) in vitro [1] |
| --- | --- | --- | --- | --- | --- | --- | --- | --- | --- | --- | --- | --- |
| [Cl][Mn][Cl] [Mn, MnCl2] | not | radioprotective | 0 | 0 | 86 | 14 | 21 | 2 | 70 | 7 | – | – |
| Nc1ncnc2c1ncn2[C@@H]1O[C@H](CO)[C@@H](O)[C@H]1O [Adenosine, adenosine] | not | radioprotective | 2 | 1 | 85 | 13 | 3 | 2 | 85 | 10 | highly protected from oxidation | prevent ionizing radiation (IR)-induced protein oxidation in vitro |
| O=c1ccn([C@@H]2O[C@H](CO)[C@@H](O)[C@H]2O)c(=O)[nH]1 [uridine] | – | – | – | – | – | – | – | – | – | – | – | prevent ionizing radiation (IR)-induced protein oxidation in vitro |
